Experimental data published in patent US7943382B2, “Method for inspecting fat-soluble vitamin and/or fat-soluble food factor by saliva analysis” (Mitsubishi Chemical Medience Corporation, priority 2004, dated 2011).

Key:
[1] = Correlation between the blood level and the content in saliva (CoQ10 ingestion tests part 1 and 2); format: in vivo, human
Description: 11 volunteers were made to ingest orally two tablets (CoQ10 content: 100 mg in two tablets) of Q10AA Multi (trade name, Shiseido Co., Ltd., hereinafter may be referred to “Supplement S”), a commercial CoQ10 supplement, at 7:00 every morning continuously for a week. Meanwhile, the contents of the fat-soluble vitamins and fat-soluble food factors in the Supplement S are 50 mg/tablet as for CoQ10, and 16.4 mg/tablet as for α-tocopherol. Then parotid saliva, directly collected saliva and heparinized plasma were collected from PM 4:00 to 5:00, three times, before and one week after ingestion and two weeks after discontinuation of ingestion. The volunteer had the mouth rinsed with water, and kept quiet on a chair for 5 minutes, while the volunteer accumulated saliva in the oral cavity and discharge to initialize the oral cavity, followed by collecting saliva. Approximately 1 ml of saliva accumulated in the oral cavity was collected as directly collected saliva. In order to collect saliva from the parotid gland, an absorbent cotton of 2 g was put beneath the tongue to prevent contamination with saliva from sublingual gland and submandibular gland, while the Saliva-sampler comprising a cotton saliva absorber and an indicator which informed termination of collection by color change was inserted between the teeth and the cheek near the open of the parotid gland. […]

[2] = CoQ10 level in parotid saliva of non-CoQ10 supplement-ingesting volunteers; format: in vivo, human; settings: 55 non-CoQ10 supplement-ingesting volunteers; 2SD 13.5 ng/ml
Description: Therefore, a standard that can assess an individually suitable intake is required. It can be easily understood from FIG. 7 that the mean level and SD (standard deviation) of CoQ10 in parotid saliva of non-CoQ10 supplement-ingesting volunteers is useful as an example of the standard. A case that a volunteer, who is taking the CoQ10 supplement at an adequate time after meals, ingests it to increase the blood level up to a limit of the CoQ10 level of a non-ingesting volunteer, will be taken as an example for explanation. If a CoQ10 level in parotid saliva is far over the mean value +2SD, the intake is reduced, and if it is between the mean value −2SD and the mean value +2SD, the intake is increased, and the CoQ10 level is repeated inspected in saliva collected again at later dates, allowing the object to be achieved. In addition, the mean level and 2SD in FIG. 7 are obtained from the CoQ10 levels in parotid saliva of the 55 non-CoQ10 supplement-ingesting volunteers, the mean level is 17.0 ng/ml and the 2SD is 13.5 ng/ml.

[3] = Adsorption of CoQ10 in saliva to absorbent materials (no extraction); format: physicochemical
Description: In the method of preparing the specimens in example 2, the absorbent materials for saliva were weighed. 50 mg of an absorbent was soaked in 600 μl of saliva, 20 μl of saliva was fractionated to analyze the CoQ10 concentration in saliva transuaded from the absorbent, to which 180 μl of isopropanol was added, mixed, and centrifuged at 4° C. by 1000 G for 5 minutes to remove proteins, and 20 μl of the supernatant was subjected to HPLC. The results of analysis for CoQ10 are shown in Table 1 as “CoQ10 concentrations in saliva which was obtained by steps that 50 mg of the absorbent was soaked in 600 μl of saliva and the saliva was preserved in the interspace of the absorbent”. It took about 3 minutes to secrete 1 ml of parotid saliva for the volunteers who spent little time, and 10 minutes or longer for the volunteers who spent lots of time, therefore it is practically difficult to collect without the absorbent. In this case, the fat-soluble food factors and the fat-soluble vitamins are adsorbed by any absorbent materials for saliva such as polyester, cotton and acetylcellulose. Although it is lowly absorptive, polyurethane fills water in saliva as bound water, so that condensation is caused, resulting in apparently high level (Refer to Table 1). Consequently, the adsorbed component should be extracted. […] That means, a certain amount of saliva should be absorbed to a certain amount of absorbent in the oral cavity.

[4] = 50 mg Acetylcellulose soaked in 600 μl of saliva
[5] = 50 mg Cotton soaked in 600 μl of saliva
[6] = 50 mg Polyester soaked in 600 μl of saliva
[7] = 50 mg Polyurethane soaked in 600 μl of saliva

correlation between concentrations in parotid saliva and plasma ([1]; 112 specimens of examples 2 and 3, FIG. 5): good correlation | correlation between levels in directly collected saliva and plasma ([1]; FIG. 6): weak but recognizable correlation | mean CoQ10 level in parotid saliva [2]: 17.0 ng/mL | CoQ10 concentration in saliva preserved in the interspace of the absorbent [3, 4]: 25 ng/mL | Collection rate [3, 4]: 7.3% | CoQ10 concentration in saliva preserved in the interspace of the absorbent [3, 5]: 3.4 ng/mL | Collection rate [3, 5]: 10.2% | CoQ10 concentration in saliva preserved in the interspace of the absorbent [3, 6]: 19.6 ng/mL | Collection rate [3, 6]: 58.2% | CoQ10 concentration in saliva preserved in the interspace of the absorbent [3, 7]: 59.8 ng/mL | Collection rate [3, 7]: 178% | CoQ10 concentration in saliva ([3]; Saliva (control), no absorbent): 33.7 ng/mL | Collection rate ([3]; Saliva (control), no absorbent): 100%
Structure (SMILES): COC1=C(OC)C(=O)C(C/C=C(\C)CC/C=C(\C)CC/C=C(\C)CC/C=C(\C)CC/C=C(\C)CC/C=C(\C)CC/C=C(\C)CC/C=C(\C)CC/C=C(\C)CCC=C(C)C)=C(C)C1=O [CoQ10, Ubidecarenone]
